Reference: paper PMC4605435 (Journal of medicinal chemistry, 2015)
Structures can show the parent of a compound that is named as a salt. Blank lines part the entries; values can stand above or below the molecule they belong to.

Legend:
ACK1 [1] = biological target: T1, ACK1 (Homo sapiens, UniProt Q07912); assay: ELISA-based ACK1 kinase inhibition; format: biochemical; settings: for inhibition at 10 µM: read-out: % Inhibition @ 10 μM (ELISA); for ACK1 inhibition in ELISA: 10 μM
VCaP cells = assay: Cell growth, viable cells by trypan blue exclusion, VCaP; format: cell-based; settings: Homo sapiens, 72 h, read-out: IC50 cell growth VCaP
ACK1 autophosphorylation = settings: read-out: IC50 inhibition of ACK1 autophosphorylation in intact cells; cited from earlier work
[2] = biological target: ACK1 Tyr284 phosphorylation in LAPC4 cells (Homo sapiens, UniProt Q07912); assay: ACK1 Tyr284 autophosphorylation by immunoblotting in EGF-treated LAPC4 cells; format: cell-based; settings: 5 μM, immunoblot (Figure 3a)
Chain of ACK1 Tyr284 phosphorylation in LAPC4 cells (Q07912 whole entry): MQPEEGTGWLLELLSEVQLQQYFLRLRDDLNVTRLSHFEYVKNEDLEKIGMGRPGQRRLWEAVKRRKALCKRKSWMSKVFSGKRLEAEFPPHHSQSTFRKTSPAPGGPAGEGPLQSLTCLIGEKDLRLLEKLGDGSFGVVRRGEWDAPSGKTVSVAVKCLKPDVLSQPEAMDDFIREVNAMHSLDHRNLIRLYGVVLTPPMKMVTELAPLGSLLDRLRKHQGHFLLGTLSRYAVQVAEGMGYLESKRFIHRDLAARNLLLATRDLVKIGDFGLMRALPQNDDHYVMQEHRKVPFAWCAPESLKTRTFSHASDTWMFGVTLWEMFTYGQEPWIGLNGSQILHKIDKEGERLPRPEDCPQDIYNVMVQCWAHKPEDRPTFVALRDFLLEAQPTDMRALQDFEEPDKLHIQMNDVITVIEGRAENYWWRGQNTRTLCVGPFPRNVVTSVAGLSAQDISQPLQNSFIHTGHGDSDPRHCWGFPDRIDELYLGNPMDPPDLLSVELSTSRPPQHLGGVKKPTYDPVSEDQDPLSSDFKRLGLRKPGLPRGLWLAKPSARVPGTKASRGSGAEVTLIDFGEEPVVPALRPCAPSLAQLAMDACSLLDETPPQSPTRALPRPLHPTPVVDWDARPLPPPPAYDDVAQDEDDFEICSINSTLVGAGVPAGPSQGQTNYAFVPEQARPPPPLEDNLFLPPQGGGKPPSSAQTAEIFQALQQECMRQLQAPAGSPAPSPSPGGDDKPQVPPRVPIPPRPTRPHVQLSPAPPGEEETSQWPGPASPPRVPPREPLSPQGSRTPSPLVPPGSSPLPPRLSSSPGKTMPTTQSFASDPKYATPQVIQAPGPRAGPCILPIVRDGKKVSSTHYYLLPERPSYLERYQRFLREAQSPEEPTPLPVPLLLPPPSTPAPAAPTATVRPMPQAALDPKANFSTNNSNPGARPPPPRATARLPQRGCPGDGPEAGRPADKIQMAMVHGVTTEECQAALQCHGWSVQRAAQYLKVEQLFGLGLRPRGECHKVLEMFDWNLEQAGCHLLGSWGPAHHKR

[3] = In vitro human plasma stability by HPLC; format: in vitro ADME; settings: for stability in human plasma: up to 24 h, HPLC
ALK = ALK (Homo sapiens, UniProt Q9UM73); assay: 33P HotSpot kinase profiling, ALK; format: biochemical; settings: ALK vs ACK1
Chain of ALK (Q9UM73 19-1620): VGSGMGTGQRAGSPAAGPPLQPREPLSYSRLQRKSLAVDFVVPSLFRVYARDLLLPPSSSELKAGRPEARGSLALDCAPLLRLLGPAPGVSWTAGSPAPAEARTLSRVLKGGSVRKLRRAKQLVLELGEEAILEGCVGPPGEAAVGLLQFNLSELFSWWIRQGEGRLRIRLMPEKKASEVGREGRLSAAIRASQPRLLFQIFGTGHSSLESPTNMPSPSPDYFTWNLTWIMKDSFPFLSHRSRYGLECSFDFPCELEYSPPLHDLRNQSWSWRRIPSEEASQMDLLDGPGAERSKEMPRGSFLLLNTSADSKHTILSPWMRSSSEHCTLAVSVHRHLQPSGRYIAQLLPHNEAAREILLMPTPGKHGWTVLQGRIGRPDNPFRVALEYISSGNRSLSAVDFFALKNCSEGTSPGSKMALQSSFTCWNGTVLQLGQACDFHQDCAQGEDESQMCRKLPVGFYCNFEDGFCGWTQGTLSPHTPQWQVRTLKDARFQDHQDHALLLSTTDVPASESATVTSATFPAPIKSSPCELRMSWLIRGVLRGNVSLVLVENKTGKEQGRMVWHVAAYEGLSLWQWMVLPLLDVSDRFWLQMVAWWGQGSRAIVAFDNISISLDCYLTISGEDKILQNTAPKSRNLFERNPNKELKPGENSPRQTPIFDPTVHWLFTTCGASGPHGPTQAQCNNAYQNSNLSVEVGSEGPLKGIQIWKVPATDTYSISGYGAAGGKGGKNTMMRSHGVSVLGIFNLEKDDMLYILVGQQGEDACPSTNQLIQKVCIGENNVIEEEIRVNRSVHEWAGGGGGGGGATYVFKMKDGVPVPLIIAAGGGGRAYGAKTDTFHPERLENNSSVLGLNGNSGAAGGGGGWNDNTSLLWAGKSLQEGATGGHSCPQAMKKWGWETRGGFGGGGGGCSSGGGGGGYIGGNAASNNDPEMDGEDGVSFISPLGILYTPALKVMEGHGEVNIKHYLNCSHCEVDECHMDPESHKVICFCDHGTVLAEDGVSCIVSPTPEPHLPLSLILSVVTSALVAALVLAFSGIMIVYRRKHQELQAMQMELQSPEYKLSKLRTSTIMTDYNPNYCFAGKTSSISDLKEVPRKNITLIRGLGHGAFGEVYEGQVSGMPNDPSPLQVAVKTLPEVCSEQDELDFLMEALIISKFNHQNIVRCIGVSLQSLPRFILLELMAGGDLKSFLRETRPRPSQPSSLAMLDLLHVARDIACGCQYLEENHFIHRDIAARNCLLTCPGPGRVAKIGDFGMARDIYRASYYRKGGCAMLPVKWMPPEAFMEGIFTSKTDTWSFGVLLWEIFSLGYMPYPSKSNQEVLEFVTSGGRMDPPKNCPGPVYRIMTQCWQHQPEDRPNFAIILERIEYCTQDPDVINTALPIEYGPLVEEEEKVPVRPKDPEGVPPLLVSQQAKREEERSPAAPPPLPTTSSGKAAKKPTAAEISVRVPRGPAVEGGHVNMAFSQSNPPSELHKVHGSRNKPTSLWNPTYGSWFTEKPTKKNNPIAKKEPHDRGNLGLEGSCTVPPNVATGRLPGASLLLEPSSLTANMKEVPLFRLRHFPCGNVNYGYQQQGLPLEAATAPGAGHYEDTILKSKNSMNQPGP

LNCaP cells = assay: Cell growth, viable cells by trypan blue exclusion, LNCaP; format: cell-based; settings: Homo sapiens, 72 h, read-out: IC50 cell growth LNCaP
A549 lung cancer cells = settings: at 10 μM; cited from earlier work
ACK1 [4] = biological target: T1, ACK1; assay: 33P HotSpot assay; format: biochemical; settings: IC50 (33P Hotspot assay)
[5] = standards; cited from earlier work

T1 sequence (Q07912 whole entry): as the sequence (Q07912 whole entry) above

Molecule: 5-[(2-Chloro-6-fluorophenyl)carbamoyl]-N^2-[(4-methoxyphenyl)amino]-N^4-[(tetrahydrofuran-2-yl)methyl]pyrimidine-2,4-diamine [9q]
% Inhibition @ 10 μM (ELISA) (ACK1 [1]; compound 10 μM, average of three or more determinations): 68 ± 10%

Molecule: c1ccc(-c2oc3ncnc(NC[C@@H]4CCCO4)c3c2-c2ccccc2)cc1 [1b]
IC50 (VCaP cells): 4000 nM

Molecule: COC(C)(C)CCn1nc(Nc2c(C)cccc2C)c2cnc(Nc3ccccc3)nc21 [2a]
IC50 (ACK1 autophosphorylation): 20 nM

inhibition at 10 µM (ACK1 [1]): 41 ± 6.3%
Molecule: Oc1ccc(NNc2ncc(F)c(NCC3CCCO3)n2)cc1F (stereo not shown) [9t, 5-Fluoro-N^2-[(4-hydroxy-3-fluorophenyl)amino]-N^4-[(tetrahydrofuran-2-yl)methyl]pyrimidine-2,4-diamine Hydrochloride]

inhibition at 10 µM (ACK1 [1]): 49 ± 2.8%
Molecule: Cc1cnc(NNc2ccc(O)c(F)c2)nc1NCC1CCCO1 (stereo not shown) [9u, 5-Methyl-N^2-[(4-hydroxy-3-fluorophenyl)amino]-N^4-[(tetrahydrofuran-2-yl)methyl]pyrimidine-2,4-diamine Hydrochloride]

ACK1 activation (Tyr284 autophosphorylation) after EGF [2]: almost complete loss of ACK1 activation
half-life at 250 µM ([3]; human, human plasma): > 6 h
stability in human plasma [3]: stable in human plasma
fold difference of ALK IC50 versus ACK1 IC50 (ALK): 3 fold
Molecule: CN1CCN(c2ccc(Nc3ncc(Cl)c(NC[C@H]4CCCO4)n3)cc2)CC1 [(R)-9b, (R)-5-Chloro-N^2-[4-(4-methylpiperazin-1-yl)phenyl]-N^4-[(tetrahydrofuran-2-yl)methyl]pyrimidine-2,4-diamine]

ACK1 activation (Tyr284 autophosphorylation) after EGF [2]: almost complete loss of ACK1 activation
IC50 (LNCaP cells): 1800 nM
stability in human plasma [3]: stable in human plasma
Molecule: CN1CCN(c2ccc(Nc3ncc(Cl)c(NC[C@@H]4CCCO4)n3)cc2)CC1 [(S)-9b, (S)-5-Chloro-N^2-[4-(4-methylpiperazin-1-yl)phenyl]-N^4-[(tetrahydrofuran-2-yl)methyl]pyrimidine-2,4-diamine]

Molecule: COc1cc(N2CCN(C)CC2)ccc1Nc1ncc2c(n1)N(C)c1ccccc1C(=O)N2 [compound 3]
A549 lung cancer cell growth (A549 lung cancer cells): inhibits

ACK1 activation (Tyr284 autophosphorylation) after EGF [2]: significant reduction in ACK1 activation
Molecule: COc1cc(N2CCC(N3CCN(C)CC3)CC2)ccc1Nc1ncc(Cl)c(Nc2ccccc2S(=O)(=O)C(C)C)n1 [compound 5, reference compound]

inhibition at 10 µM (ACK1 [1]): 89 ± 5.6%
IC50 (ACK1 [4]): 28 nM
Molecule: O=C(O)CCC(=O)N1CCN(c2ccc(Nc3ncc(C(=O)Nc4c(F)cccc4Cl)c(NCC4CCCO4)n3)cc2)CC1 (stereo not shown) [compound 22, 4-(4-{4-[[5-((2-Chloro-6-fluorophenyl)carbamoyl)-4-(((tetrahydrofuran-2-yl)methyl)amino)pyrimidin-2-yl]amino]phenyl}piperazin-1-yl)-4-oxobutanoic Acid]

ACK1 inhibition in ELISA (ACK1 [1]): moderate ACK1 inhibition
Molecule: Cl.O=C(O)Cc1ccc(Nc2ncc(Cl)c(NCC3CCCO3)n2)cc1 (stereo not shown) [compound 23]

ACK1 inhibition in ELISA (ACK1 [1]): moderate ACK1 inhibition
Molecule: Cl.O=C(O)CCc1ccc(Nc2ncc(Cl)c(NCC3CCCO3)n2)cc1 (stereo not shown) [compound 24]

ACK1 inhibition in ELISA (ACK1 [1]): moderate ACK1 inhibition
Molecule: CN(C)CCNC(=O)CCc1ccc(Nc2ncc(Cl)c(NCC3CCCO3)n2)cc1.Cl (stereo not shown) [compound 26]

ACK1 inhibition in ELISA (ACK1 [1]): moderate ACK1 inhibition
Molecule: Cl.O=C(O)CCc1ccc(Nc2ncc(Br)c(NCC3CCCO3)n2)cc1 (stereo not shown) [compound 28]

ACK1 inhibition in ELISA (ACK1 [1]): significant ACK1 inhibition
Molecule: Cl.O=C(O)CCC(=O)N1CCN(c2ccc(Nc3ncc(Br)c(NCC4CCCO4)n3)cc2)CC1 (stereo not shown) [compound 29]

Molecule: CCN(CC)CCOC(=O)c1ccc(N)cc1 [procaine]
reported stability in human plasma [5]: unstable
